Measured values: ChEMBL document CHEMBL5241061, “Advance of structural modification of nucleosides scaffold” (Eur J Med Chem, 2021)

How the values were obtained:
Format in all cases: functional, organism-based
[1] = test system: Human immunodeficiency virus; experiment: Antiviral activity against Human immunodeficiency virus; details: Human immunodeficiency virus 1
Hepatitis B virus = experiment: Antiviral activity against Hepatitis B virus
[2] = test system: Human immunodeficiency virus; experiment: Antiviral activity against Human immunodeficiency virus infected in MT4 cell incubated for 72 hrs by CPE based microscopic assay; details: Human immunodeficiency virus 1, MT4, 72 h

EC50 [1]	EC50 (Hepatitis B virus)	EC50 [2]	Structure (SMILES)
8.2 µM	6 µM	–	Nc1ncnc2c1ncn2[C@@H]1CC[C@H](CO)O1
3.4 µM	20 µM	–	Nc1ncnc2c1ncn2[C@H]1O[C@@H](CO)[C@H](O)C1(F)F
–	–	0.001 µM	Cc1cn(C2CC(N=[N+]=[N-])C(CO[PH](=O)OC3CCC4(C)C(C=CC5C4CCC4(C)C(C(C)CCCC(C)C)CCC54)C3)O2)c(=O)[nH]c1=O (configuration not stated)
0.38 µM	1.2 µM	–	Nc1ncnc2c1ncn2[C@@H]1C=C[C@H](CO)O1
